# Data from US20240226126A1, “COMPOSITIONS FOR TREATMENT OF PSORIASIS” (The Board of Trustees of the Leland Stanford Junior …, priority 2021, published 2024).
# Entries after “also recorded” stand apart in the source; their conditions may differ. Where two headings read alike, the source gives them in different places.
# Key:
# [1] = system: Human Primary keratinocytes; test: Cytokine response of TNF-α/IL-17 stimulated keratinocytes (Luminex); type: cell-based; conditions: TNF-α 10 ng/ml and IL-17 10 ng/ml, 48 hours
# Method: Human Primary keratinocytes were purchased from Thermo Fisher. Keratinocytes were cultured in medium 154 supplemented with HKGS, split using TrypLE and neutralized using DMEM supplemented with 10% FBS. Cells were split to keep 20-80% confluency and not passaged above passage 5. Keratinocytes were detached using TrypLE Express, Trypsin Neutralizer solution was added and the detached cells transferred to a sterile conical tube. Cells were resuspended in 15 ml medium with HKGS supplemented (cat no S-001-K) but without hydrocortisone. The cells were pipetted up and down with a 10 ml pipette to ensure a homogeneous cell suspension.
# Human primary keratinocytes detached as described above, were resuspended in PBS at 1×10^6 cells/ml and filtered through a 35 μm cell strainer. Cells were stained with CellTrace Violet at 5 μM for 20 minutes at 37° C., 5% CO2. After staining, DMEM supplemented with 10% FBS was added to stop staining and cells was incubated at 37° C., 5% CO2 for 5 minutes. After incubation, cells were washed with PBS 1× and resuspended in Medium 154 supplemented with HGKS without hydrocortisone at 6×10^5 cells/ml and 200 μl was added to wells in a 96-well flat bottom cell culture plate. Cells were incubated overnight at 37° C., 5% CO2/95% air. […]
# Supernatants were analyzed for cytokines IL-6, IL-8, and CXCL1 using Luminex. […] Samples were analyzed on a Bio-Rad Luminex 200 analyzer. […]
# Rac1V12 transgenic mice = test: Rac1V12 transgenic mouse model of psoriasis; type: in vivo
# Method: Transgenic mice and mice for xenografting Rac1V12-transgenic mice were generated as previously described. For xenografting, NOD/SCID mice were used (NOD.CB17-PrkdcSCID/J mice; stock 001303; The Jackson Laboratory).
# Topical formulation and administration. A rudimentary preparation of benzamil was tested using benzamil (6 mg/ml, benzamil, Sigma) in 100% ethanol. This solution was then topically applied through submerged and air-drying tails of mice under anesthesia, once daily for 15 days. Similarly, benzamil was suspended in water (2 mg/ml), then mixed into Vaseline, vortexed and centrifuged until a clear solution was obtained. A final formulation of benzamil is described in supplementary material and methods. For intraperitoneal injections, benzamil was dissolved at 2 mg/ml in water, and 0.7, 1.4 or 2.1 mg/kg was injected IP daily. For osmotic pump injections, Alzet osmotic pumps were used, (Alzet minipump 1002). Pumps were filled with 100 ul of benzamil in ethanol under sterile conditions, at a final dose of 2 mg/kg/day, and subcutaneous, inter-scapular implantations were performed under anesthesia. Pumps were replaced once for a total of 2×14 days treatment period.
# Topical formulation of benzamil. A labrasol (88%) based formulation of benzamil was generated containing benzamil (1%, w/w), span-20 (1%) and cetyltrimethylammonium bromide (CTAB) (10%). Constituents were dissolved in ethyl alcohol, mixed well using vortex and sonication at 37° C. until a clear solution was obtained. Ethyl alcohol was evaporated in a Speedvac. The residue was suspended in Labrasol and homogenized to obtain the final formulation.
# For a final formulation of benzamil (for use on human reconstructed skin), 52 ml water, 5.2 ml glycerin, 9.7 ml rice bran oil, 4 ml caprylic aid triglyceride, 6.2 g cetearyl alcohol, 8.6 g 50/50 mixture of cetearyl glucoside and cetearyl alcohol and 3.5 g cocoa butter was heated to 75° C. until dissolved, removed from heat, mixed using Cimarec 2 magnetic stir. At 45° C. […]
# [2] = system: primary psoriasis keratinocytes (PSOKC); test: MTT proliferation assay, primary psoriasis keratinocytes; type: cell-based, human; conditions: for proliferation in PSOKCs: 10 μM
# Method: MTT assays. 10000 third-passage adult keratinocytes per well, or 25000 for IC50 curves, were seeded on a collagen-coated 96 well plate, and incubated with 50/50 (Medium 154 and Keratinocyte—SFM medium, Invitrogen with Human Keratinocytes Growth Supplement, S-001-5, Invitrogen, and Medium 154 supplement M-154-6 500, Invitrogen) with 1% antibiotic-antimycotic (30-004-CI, Mediatech Inc) for 48 h. 10 ul MTT reagent (MTT proliferation assay, ATCC, Manassas, US) was added for 4 h, 100 ul detergent was added to each well for 4 hours, and absorbance read at 570 nm (Spectramax M5, Molecular Devices, US), normalized to cell-free control absorbance.
# Small molecule inhibition. All small molecules were diluted into concentrated stock solutions (all except YM-244769 were made into 50 mM stock solutions) in DMSO, and stored in aliquots at −20 C. Aliquots were thawed, then diluted to a 1000× stock concentration, then added to media so that final DMSO concentration is 0.1%. All in vitro studies entailing small molecule inhibition were accessed over 24 hour incubation period.
# Statistical analysis. Microrarray data was analyzed using the affy package from Bioconductor on R statistical software package. Other statistical analysis was performed using Graphpad Prism 7.03, and statistical tests (unpaired t-tests with Welch correction, paired t-test, Mann-Whitney unpaired test, and linear regression analysis with goodness of fit) and sample sizes are outlined in each figure legend. Components of signature for goodness of fit by linear regression analysis were extrapolated from the benzamil rank aggregation algorithm All error bars denotes standard error of the mean. For IC50 calculations, MTT data absorbance values were calculated for percent change from the 0.1% DMSO vehicle condition. A non-linear fitted curve [log (inhibitor) vs response (three parameters)] in GraphPad Prism 7 was used to determine IC50 values. For mouse and xenograft experiments, ad hoc power calculations were based on prior phenotypic characterization of these models. Transgenic mice were randomized from same litters when possible, or based on similar phenotypic disease severity, and all experiments were run in triplicates or more. Sample size of xenografts mice studies were based on patient sample availability and a predicted graft take rate of 80%. For all comparisons, p values of less than 0.05 were considered statistically significant. All tests were two-tailed unless specified in figure legends.
# (§1) Small molecule inhibitors. 10 uM benzamil hydrochloride hydrate (Sigma B2417), 10 uM amiloride hydrochloride (Tocris 890) 10 uM zoniporide dihydrochloride (Tocis 2727), 10 nM YM-244769 (Tocris 4544), 10 uM SEA 0400 2-[4-[(2,5-944 difluorophenyl)methoxy]phenoxy]-5-ethoxyaniline) (Tocris 6164), 10 uM triamterene (Sigma-Aldrich T4143).
# [3] = system: V12KC (primary keratinocytes transduced with V12 Rac1); test: Proliferation of V12 Rac1 transduced primary keratinocytes vs LacZ control; type: cell-based; conditions: Homo sapiens, Keratinocyte
# PSOKCs = test: Intracellular pH assay (pHrodo red); type: cell-based, human; conditions: PSOKCs / primary keratinocytes overexpressing Rac1, 24 h, 10 uM; listed as Zoniporide
# Method: Intracellular pH assays 25,000 were seeded per well of 96-well plate and allowed cells to settle and recover for 24 hrs. Small molecules or 0.1% DMSO vehicle control was added to culture media for 24 hours (n=6-8). Cells were washed once with 1× Live Cell Imaging Solution (LCIS) (ThermoFisher A14291DJ), and then incubated with pHrodo red (ThermoFisher P35372), PowerLoad (ThermoFisher P35372), in LCIS with added 1:5000 Hoechst (Life Technologies) for 30 min at 37 C 5% CO2 with corresponding small molecule added at same concentration used for 24 hour incubation.
# as §1
# Intracellular pH assays and standard curves. Cells were also washed 3 times with 1×LCIS with the last wash of 100 uL kept on cells. For generation of pH standard curve, additional wells (n=6-8) were treated as described with an addition of 0.1% DMSO vehicle for 24 hours. […] The 96-well plate was then read on a fluorescence microplate reader (Spectramax M5, Molecular Devices) with excitation/emission of […] and 361/497. […]
compound,measurement,setting,value
C=C(CC)C(=O)c1ccc(OCC(=O)O)c(Cl)c1Cl [Ethacrynic acid],concentration with decrease of IL-8,[1],10 µM
Bromocriptine,"signs of improvement (scaling, ulceration, erythema, epidermal thickening)","Rac1V12 transgenic mice; intraperitoneal 10 mg/kg every other day, 20 treatments, vs baseline",improved after treatment
N=C(N)NC(=O)c1nc(Cl)c(N)nc1N [amiloride],proliferation in PSOKCs,[2],not achieved by amiloride or triamterene; also recorded: not amiloride or triamterene reduced proliferation
same,psoriasiform hyperplasia,Rac1V12 transgenic mice; systemic,failed to demonstrate any effect
Cc1cc(I)ccc1Nc1c(C(=O)NOCC2CC2)cc(F)c(F)c1F [PD198306],concentration with decrease of CXCL1,[1],100 nM
NC(=NCc1ccccc1)NC(=O)c1nc(Cl)c(N)nc1N [benzamil],IC50,[3],0.99 µM
same,IC50,"[2]; cells from 5 psoriasis donors, read-out: IC50 on proliferation",~1 µM
same,IC50,"[2]; range across donors, read-out: IC50 range in five psoriasis donor primary keratinocyte cultures",0.0001 to 4.6 µM
Nc1nc(N)c2nc(-c3ccccc3)c(N)nc2n1 [triamterene],proliferation in PSOKCs,[2],not achieved by amiloride or triamterene; also recorded: not amiloride or triamterene reduced proliferation
N=C(N)NC(=O)c1cnn(-c2cccc3ncccc23)c1C1CC1 [zoniporide],intracellular pH,PSOKCs,significantly reduced intracellular pH
same,proliferation in PSOKCs,[2],recapitulated benzamil's significant capacity to reduce proliferation
same,proliferation in PSOKCs,[2]; listed as Zoniporide,reduced proliferation in PSOKCs to levels observed by Benzamil
C[C@H]1C[C@H]2[C@@H]3CCC4=CC(=O)C=C[C@]4(C)[C@@]3(F)[C@@H](O)C[C@]2(C)[C@@]1(O)C(=O)CCl [clobetasol],epidermal thickness,"Rac1V12 transgenic mice; topical, compared to vehicle",reduction in epidermal thickness
